# Reference: patent US10745393B2, “Small molecular probes, processes and use thereof” (JAWAHARLAL NEHRU CENTRE FOR ADVANCED SCIENTIFIC RESEARCH, priority 2014, dated 2020)
# Where “and” joins values, the source holds several entries; their conditions need not be identical. Equal entries are not always repeated. Entries after “also recorded” stand apart in the source; their conditions may differ.
# What was measured:
# [1] = Absorption, emission and quantum yield of probes in Tris-HCl buffer without DNA; type: physicochemical
# (AT)20 [2] = test: Fluorescence response / quantum yield of probes with dsDNA (AT)20; type: binding
# (AT)10 [3] = test: Absorption / fluorescence response of probes with dsDNA (AT)10; type: binding; conditions: probe 10 μM
# (D1)mix [4] = test: Fluorescence response / quantum yield of probes with dsDNA (D1)mix; type: binding
# (D2)mix [5] = test: Fluorescence response of probes with dsDNA (D2)mix; type: binding
# [6] = test system: ssDNA oligonucleotides (dA10, dT10, dG10 and dC10); test: Fluorescence emission in presence of ssDNA oligonucleotides; type: binding; conditions: probe 10 μM, Tris-HCl buffer
# calf-thymus DNA (ct-DNA) = test: Fluorescence response in presence of calf-thymus DNA; type: binding; conditions: TC 10 μM, ct-DNA 200 μg/mL
# From the text: Furthermore, the fluorescence response of TC in presence of calf-thymus DNA (ct-DNA) is also studied.
# (AT)20 [7] = test: Thermal denaturation (UV-melting) of dsDNA with probe TC; type: binding
# (AT)10 [8] = test: as above; type: binding
# (GC)10 [9] = test: as above; type: binding
# (D1)mix [10] = test: as above; type: binding
# (D2)mix [11] = test: as above; type: binding
# (D1)mix [12] = test: Agarose gel electrophoresis staining of dsDNA band; type: binding; conditions: 3% agarose gel, about 0.6 μg dsDNA, UV-illumination
# (GC)10 [13] = test: Agarose gel electrophoresis staining of dsDNA band; type: binding; conditions: 3% agarose gel, about 0.6 μg dsDNA, UV-illumination
# cells [14] = test: Comparison of DNA dyes: cell permeability; type: cell-based; conditions: Table 3, probe of the disclosure
# cells [15] = test: Comparison of DNA dyes: toxicity; type: cell-based; conditions: Table 3, probe of the disclosure
# From the text: The major advantages of probe TC are: longer excitation/emission wavelengths (which avoids the cell damage due to the UV-light absorption commonly observed with probes like DAPI and Hoechst dyes, and auto-fluorescence from the cellular organelles and biomolecules), larger stoke shift (this provides additional advantage that avoids the self-absorption of higher energy part of their emission, useful in FRET and BRET based assays), good cell permeability (this is the major limitation of existing probes like propidium iodide, TO-PRO-dyes), non-toxicity (toxicity is the major limitation of NIR-fluorescence probes like DRAQ5 probe) and specific staining (commonly observed with SYTO and other dyes are non-specific in nature). Many commercial/reported dyes in literature are known to bind single stranded DNA, RNA etc. The probe TC is highly specific to double stranded DNA. […] In presence of AT-rich DNA, TC is a better probe than EtBr and PI which are highly toxic to cells.
# HeLa S3 cells = test: Confocal fluorescence nuclear staining, co-staining with Hoechst 33258; type: cell-based; conditions: TC 5 μM
# HEK293 cells [16] = test: Nuclear staining with cytoplasmic marker α-tubulin; type: cell-based; conditions: TC 5 μM
# HEK293 cells [17] = test: MTT cytotoxicity assay; type: cell-based
# Experimental: 10,000 HEK293 cells are seeded in 96-well plate and cultured for about 12 hours. […] Water is used as a control. About 20 μL of MTT (about 5 mg/mL) is added in each well, incubated for about 3 hours at about 37° C. and about 100 μL of DMSO is added. Readings are taken at about 570 nm in ELISA reader (VERSA Max microplate reader, Molecular Devices). The data is normalized with control and plotted with mean and standard error.
# [18] = test system: (AT)20-Hoechst 33258 complex; test: Competitive binding / FRET / CD study with preformed Hoechst complex; conditions: Hoechst 4 μM + (AT)20, TC 0 to 40 μM, CD signal
# Plasmodium falciparum = test: Live cell fluorescence imaging of malaria parasites in erythrocytes; type: cell-based, P. falciparum 3D7 strain; conditions: (FIG. 38 legend 1 and 2 μM), 30 minutes
# Aβ42 aggregates [19] = target: T1, Aβ42 aggregates (Homo sapiens, UniProt P05067); test: Absorption / fluorescence response with Aβ42 fibrillar aggregates; type: binding
# [20] = target: α-Synuclein (α-Syn) aggregates (Homo sapiens, UniProt P37840); test: Selectivity: fluorescence with α-synuclein aggregates; type: binding; conditions: α-Syn aggregates 20 μM
# [21] = target: T2, islet amyloid polypeptide (IAPP) aggregates (Homo sapiens, UniProt P10997); test: Selectivity: fluorescence with IAPP aggregates; type: binding; conditions: IAPP aggregates 20 μM
# T2 construct: A 0.1 mg (Merck, calbiochem) sample of amylin is dissolved in 100 μL of acetonitrile; purchased Merck, calbiochem
# Aβ42 aggregates [22] = target: T1, Aβ42 aggregates; test: Binding saturation assay (fluorescence) for binding constant
# [23] = target: Aβ42 fibrillar aggregates (Homo sapiens, UniProt P05067); test: pH-dependent colorimetric and fluorometric response; type: binding; conditions: TC 10 μM, PBS buffer
# [24] = Tris-HCl buffer (100 mM, pH 7.4)
# [25] = increasing concentrations of TC (1 μM to 20 μM), FIG. 10
# T1 sequence (P05067 672-713 limits assumed): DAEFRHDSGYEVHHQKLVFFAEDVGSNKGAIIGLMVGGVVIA
# Sequence of Aβ42 fibrillar aggregates (P05067 672-713 limits assumed): as above
# T2 sequence (P10997 34-70 limits assumed): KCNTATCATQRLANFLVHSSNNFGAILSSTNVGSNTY
smiles,measurement,setting,value
"CCN(CC)c1ccc2cc(/C=C/c3sc4ccccc4[n+]3C)c(=O)oc2c1 [TC, (E)-3-(2-(N-methyl-benzo[d]thiazol-2-yl)vinyl)-7-(diethylamino)-2H-chromen-2-one]",ΦF in Buffer,"[1]; Tris-HCl buffer (100 mM, pH 7.4), absence of DNA",0.03
same,emission (fluorescence) maxima,"[1]; Tris-HCl buffer, no DNA, very weak fluorescence",641 nm
same,absorption maxima,"[1]; probe 10 μM, Tris-HCl buffer, no DNA",528 nm
same,fluorescence enhancement in presence of (AT)20,"(AT)20 [2]; TC 10 μM, DNA 0 to 12 μM",~16 fold
same,ΦF with (AT)20,(AT)20 [2]; [24],0.36
same,comparative fluorescence response in presence of (AT)20,"(AT)20 [2]; dye 10 μM, Tris-HCl buffer",excellent fluorescence marker
same,probe concentration at which fluorescence reaches saturation,(AT)20 [2]; fixed dsDNA 12 μM,18 to 22 µM
same,fluorescence enhancement in presence of (AT)20,(AT)20 [2]; [25],~16 fold
same,emission maxima in presence of (AT)10,(AT)10 [3],616 nm
same,fluorescence enhancement in presence of (AT)10,(AT)10 [3]; DNA 0 to 12 μM,~8 fold
same,fluorescence enhancement in presence of (D1)mix,"(D1)mix [4]; TC 10 μM, DNA 0 to 12 μM",~6 fold
same,ΦF with (D1)mix,(D1)mix [4]; [24],0.11
same,fluorescence enhancement in presence of (D1)mix,(D1)mix [4]; [25],~6 fold
same,fluorescence enhancement in presence of (D2)mix,"(D2)mix [5]; TC 10 μM, DNA 0 to 12 μM",~1.5 fold
same,fluorescence enhancement in presence of (D2)mix,(D2)mix [5]; [25],~1.5 fold
same,emission behaviour in presence of ssDNA,[6],do not show significant changes in the emission behaviour
same,fluorescence response in presence of ct-DNA,calf-thymus DNA (ct-DNA),strong fluorescence enhancement
same,Tm(DNA + TC),(AT)20 [7],49.7 °C
same,Tm(DNA + TC),(AT)10 [8],25.6 °C
same,Tm(DNA + TC),(GC)10 [9],60.3 °C
same,Tm(DNA + TC),(D1)mix [10],61.6 °C
same,Tm(DNA + TC),(D2)mix [11],73.5 °C
same,ΔTm,(D2)mix [11]; TC bound vs unbound,1.6 °C
same,gel staining of (D1)mix band,(D1)mix [12],strong fluorescence intensity
same,gel staining of (GC)10 band,(GC)10 [13],not stained
same,Cell permeability,cells [14],Permeable
same,Toxicity,cells [15],Non-Toxic
same,nuclear staining of HeLa S3 cells,HeLa S3 cells,selective targeting to the cell nucleus
same,co-localization with cytoplasmic marker α-tubulin,HEK293 cells [16],does not co-localize with cytoplasmic marker α-tubulin
same,"cytotoxicity, dose dependent MTT","HEK293 cells [17]; HEK293 cells, 2.5, 5 and 7.5 μM, about 30 minutes",non-toxic
same,viable cells,"HEK293 cells [17]; HEK293 cells, about 5 μM TC, about 24 hours",about 64%
same,competition with Hoechst for minor groove binding site,[18],not competing with Hoechst for binding site in the minor groove of dsDNA
same,staining of trophozoite stage parasites in red blood cells,Plasmodium falciparum,specifically binds to the parasite cells within the red blood cells; also recorded: accumulated specifically in the nucleus of the parasitized red blood cell
same,absorption maximum TC/fibril,Aβ42 aggregates [19]; Experiment,595 nm
same,quantum yield upon binding with Aβ42 aggregates,Aβ42 aggregates [19]; TC 2 μM,40%
same,persistence of fluorescence of stained Aβ42 aggregates,Aβ42 aggregates [19]; aging,retain red fluorescence even after 50 days of aging
same,emission maximum in presence of Aβ42 aggregates,Aβ42 aggregates [19]; probe 2 μM,654 nm
same,fluorescence enhancement in presence of Aβ42 aggregates,"Aβ42 aggregates [19]; probe 2 μM, PBS buffer",~30 fold
same,fluorescence enhancement with α-Syn aggregates,[20],does not lead to significant fluorescence enhancements
same,fluorescence enhancement with IAPP aggregates,[21],does not lead to significant fluorescence enhancements
same,association constant Ka,Aβ42 aggregates [22]; 2 μM of Aβ42 aggregates,1.72e+07 M⁻¹
same,Kd,"Aβ42 aggregates [22]; fluorescence saturation curve, Aβ42 aggregates 10 μM (QC) or 2 μM (TC), read-out: dissociation constant Kd",58 ± 1.2 nM
same,pH range in which colorimetric and emission properties with Aβ42 aggregates are unaffected / usable,[23],3 to 8 and 2-8
